# Literature values, collected in patent US20230255250A1, “COMPOSITION FOR NUTRITIONAL SUPPLEMENTATION THAT PREVENTS DAMAGE CAUSED BY OXIDATIVE STRESS, HAVING AS PRINCIPLES XANTHOPHYLLS FROM MICROALGAE” (priority 2022, published 2023).
# Experiments:
# [1] = water at room temperature
# [2] = doses less than 500 mg/kg intravenously
substance,measurement,setting,value
2-Hydroxylpropyl-beta-cyclodextrin [HP-β-CD],solubility in water,[1],greater than 500 mg/mL
same,toxicity,[2],not toxic
same,"regulation of molecules such as MHC proteins, and of PD-L1/L2",dendritic cells; HP-β-CD stimulated dendritic cells,remarkable regulation
same,production of IL-6,dendritic cells; treated with HP-β-CD,increased
same,production of IL-10,dendritic cells; treated with HP-β-CD,increased
same,production of TNF-α,dendritic cells; treated with HP-β-CD,increased
same,proliferation and activation of T lymphocytes,T lymphocytes,induces proliferation and activation
